Columns and labels:
Thrombospondin 4 (TSP4) = test: Real time rt-PCR and Western blot validation, thrombospondin 4; assay type: cell-based; conditions: OVCAR-3 1 μM (rt-PCR); A2780 10 μM (Western)
C6 glioma = test: Rat glioma (brain cancer) model, MRI; assay type: in vivo; conditions: oral 60 mg/kg/day; vs untreated control
Procedure: FIG. 9. SHetA2 inhibition of Angiogenesis. C6 glioma cells were injected into the brains of 2 rats. One week later, one rat was gavaged with 60 mg/kg/day SHetA2 on each Monday, Wednesday and Friday. Blood vessels were imaged by MRI.
FIG. 10. […] C6 glioma cells were injected into the brains of 2 rats. One week later, one rat was gavaged with 60 mg/kg/day SHetA2 on each Monday, Wednesday and Friday. The blood flow was measured by MRI imaging.
FIG. 11. SHetA2 inhibition of glioma tumor growth. C6 glioma cells were injected into the brains of 2 rats. One week later, one rat was gavaged with 60 mg/kg/day SHetA2 on each Monday, Wednesday and Friday. The tumor size was measured by MRI imaging.
In this in vivo model, glioma cells are injected into the brains of rats and the growth of the tumor and development of blood vessels in the tumor is measured by magnetic resonance imaging (MRI).

[1] = tested on: Caki renal cancer xenografts; test: Caki renal cancer xenograft tumor model; assay type: in vivo, mouse
Procedure: FIG. 12. Various Xenograft tumors stained with CD34 antibodies (brown) to identify endothelium. The B16 mouse melanoma cell line was established as a syngeneic tumor in an immunocompetent mouse model and the human Caki renal cancer and A2780 ovarian xenograft tumors in immunocompromised mice. The treated mice were gavaged with 60 mg/kg/day SHetA2 and the untreated were gavaged with solvent only. The tumors were excised and sections were stained with the anti-CD34 antibody to detect endothelial cells (brown stain).
FIG. 20. Mice harboring Caki renal cancer xenografts were treated with 60 mg/kg/day SHetA2 or PEG400 vehicle for 15 days. After another 15 days of growth, the tumors were removed, fixed, embedded and sections. Sections were stained with PAS to identify glycoproteins and lysosomes. The untreated tumor is on the left and the treated tumor is on the right.
Survival was the primary endpoint of those studies. […] Tumor growth was the primary endpoint of the renal cancer study.

[2] = tested on: NCI human tumor cell line panel; test: SHetA2 cytotoxicity in NCI human tumor cell line panel; assay type: cell-based
Procedure: The SHetA2 compound was evaluated in the National Cancer Institute (NCI) human tumor cell line panel by the Developmental Therapeutics Program (DTP). The human tumor cell lines were grown in RPMI 1640 medium containing 5% fetal bovine serum and 2 mM L-glutamine. Cells were inoculated into 96 well microtiter plates at densities ranging from 5,000 to 40,000 cells/well depending on the doubling time of individual cell lines and incubated for 24 h prior to addition of SHetA2. After 24 h, two plates of each cell line were fixed in situ with TCA, to represent a measurement of the cell population for each cell line at the time of drug addition (Tz). Drugs were dissolved in dimethyl sulfoxide (DMSO) and diluted in complete medium containing 50 μg/ml gentamicin, prior to addition to the culture wells. […] […] The absorbance was read on an automated plate reader at a wavelength of 515 nm. Using the seven absorbance measurements (time zero, (Tz), control growth, (C), and test growth in the presence of drug at the five concentration levels (Ti)), the GI50 was calculated from [(Ti−Tz)/(C−Tz)]×100=50. […]

[3] = tested on: organotypic cultures of normal endometrial cells; test: Chemoprevention in DMBA-treated endometrial organotypic cultures; assay type: cell-based; conditions: histology and karyometric analysis
Excerpt: Untreated: The specimen is cellular with both surface and mid-gel cells presence in abundance. Two cell types are clearly present. One appears to be stromal. The nuclei are thin and spindle shaped and the cytoplasm is similar. When cut in cross-section the nuclei are very small and round and hyperchromatic. The other cells have large, oval to almost boxcar nuclei with small nucleoli and abundant cytoplasm. Numerous mitosis are present. The epithelial cells are almost syncitial in nature and appear to cling to one another. With DMBA Carcinogen: The specimen is cellular. The cells present have lost their cytoplasm. There is more pleomorphism of the cells and many are very hyperchromatic. Mitoses are very numerous-approximately 2× the number in untreated. Cells no longer are together but are distinct one from another. Stromal cells intermix with the epithelial cells. […]
FIG. 19 illustrates a typical experiment in which organotypic cultures of normal endometrial cells were treated with a carcinogen called DMBA and developed the cancer phenotype. […] All segmented nuclei were then subjected to texture feature extraction using TICAS software, resulting in 95 texture features for each nucleus that were subjected to quantitative analysis.

CC1(C)CC(C)(C)c2cc(NC(=S)Nc3ccc([N+](=O)[O-])cc3)ccc2S1 [SHetA2]
Expression of TSP-4 at the RNA and protein levels (Thrombospondin 4 (TSP4)): inhibit expression
Angiogenesis of glioma tumors (MRI) (C6 glioma): inhibited the angiogenesis
Growth of glioma tumors (MRI) (C6 glioma): inhibited the angiogenesis and growth of the tumors
PAS stain of renal xenograft tumors ([1]; 60 mg/kg/day for 15 days, treated vs untreated tumors): increase in general glycoprotein expression and lysosomal staining
Tumor growth ([1]; renal cancer model): decreased tumor growth
Development of blood vessels inside tumors (anti-CD34 staining) ([1]; renal, oral 60 mg/kg/day): inhibited the development of blood vessels
percent growth levels ([2]; 10 and 100 μM SHetA2, majority of cell lines): negative percent growth levels
GI50 values ([2]; 55 cell lines, 9 cancer types, 48 h): micromolar range
Development of the cancer phenotype after DMBA carcinogen [3]: prevented the development of this phenotype
